Experimental findings from publication PMC12271471, “Direct synthesis of mycophenolic acid aryl esters with antioxidant and antiproliferative properties” (Scientific Reports, 2025) are described below.

SMILES strings stand for the structures.

In general, EC50 refers to the midpoint of the concentration-response curve. Read a low EC50 as greater potency. In general, IC50 refers to the concentration at which inhibition is half-maximal.

In assay [1] the test system is PBMCs. Kind of assay: VPD450 proliferation test (flow cytometry) on PBMCs. As to conditions: for EC50: Homo sapiens, PBMC, PBMCs stimulated with anti-CD3/anti-CD28 beads, 72 h, mean ± SD; for SI selectivity index PBMCs (IC50/EC50): ratio between IC50 (XTT) and EC50 (VPD450) on PBMCs. Type of assay: cell-based, human. As for the experimental part:
These values indicate the concentration of any compound at which proliferation of PBMCs (healthy cells), and T-Jurkat cells (T-cell leukemia), is inhibited by 50% compared to the control. Cells were treated with the compounds for 72 h (PBMCs) or 48 h (T-Jurkat), followed by a […] VPD450 test. The results are presented in ESI Fig. S3 as proliferation curves concerning concentration.
ESI Figure 3. Concentration-dependent change in proliferation under the treatment of ester derivatives of MPA. (A) VPD450-labelled PBMCs were cultured in the presence of different concentrations (100; 50; 25; 10; 1; 0.1, and 0.01 μM) of MPA, MMF, and ester derivatives, and stimulated with magnetic beads coated with anti-CD3 and anti-CD28 antibodies for 72 hours. (B) VPD450-labelled T-Jurkat cells were cultured in the presence of different concentrations (100; 10; 1; 0.1 and 0.01 μM) of MPA and ester derivatives for 48 hours. The plots were separated based on the type of ester derivative (P or MP). Cell proliferation was analyzed using flow cytometry. The results are expressed […]
(1 picture or pasted object on this page, not shown here) […]
inhibited cell viability by more than 50%. Each experiment was conducted in triplicate, and the final […]
VPD450 dye-based in vitro cell proliferation test
PBMCs and T-Jurkat cells were washed twice with warm PBS (37°C), re-suspended in fresh PBS at a final concentration of 10-30∙10^6 cells/ml, and labelled with 1 µl of VPD450 (BD Biosciences) at 37°C for 15 minutes, with vortexing every 5 minutes to ensure uniform staining. Subsequently, cells were washed with PBS, then with the complete medium (X-VIVO20 for PBMCs and RPMI-1640 for T-Jurkat cells), next re-suspended in fresh complete medium and seeded into 96-well plates at a concentration of 1∙10^6 cells per well. PBMCs were additionally stimulated with magnetic beads coated with anti-CD3 and anti-CD28 antibodies (Invitrogen) at a 2:1 cell-to-bead ratio. To the experimental wells, 100 µl of the MPA derivatives were added to achieve final concentrations of 50, 25, 10, 5, 1, 0.1, and 0.01 µM. In parallel, control wells containing stained but unstimulated cells and stained, stimulated cells were prepared at the same concentration. Cell proliferation was analyzed using an LSRFortessa flow cytometer (BD Biosciences) and Kaluza C Flow Cytometry Analysis Software (Beckman Coulter). […]
Statistical analysis was conducted using GraphPad Prism 9 (GraphPad Software Inc).
Differences between MMF, MPA and its new derivatives were assessed using a two-tailed unpaired Student’s t-test, with statistical significance defined as p < 0.05. EC50 and IC50 values were determined by fitting data to a four-parameter non-linear regression model in GraphPad Prism 9. Statistical significance was evaluated using the t-test.
(In general: In flow cytometry, cells or beads pass a laser one at a time.)

In assay [2] the test system is PBMCs. In words: XTT cytotoxicity test on PBMCs. Type of assay: cell-based. The conditions noted are these: Homo sapiens, PBMC, 72 h (ESI: 96 h), viability, mean ± SD, read-out: Relative IC50 PBMCs (XTT). The protocol:
Table 3 presents the IC50 values obtained from the XTT test on PBMCs and the T-Jurkat cell line, using MPA and MMF as standards. These values indicate the concentration of each compound required to reduce the viability of PBMCs (healthy cells) and T-Jurkat cells (T-cell leukemia) by 50% compared to the control. Cells were treated with compounds for 72 h (PBMCs) or 48 h (T-Jurkat), followed by a colorimetric XTT test. The results are illustrated in ESI Fig. S2 as a viability curve in relation to concentration.
Biological evaluation — PBMC and T-Jurkat cells […]
Human peripheral blood mononuclear cells (PBMCs) were isolated from buffy coats provided by anonymous, healthy volunteers with an average age of 35±4 years during routine transfusion procedure. These samples were received by the Authors from the Regional Centre for Blood Donation and Treatment in Gdańsk (Poland). […]
solely for PBMCs isolation. PBMCs were suspended in a complete X-VIVO medium, consisting of X-VIVO20, 10% heat-inactivated human AB serum, penicillin (100 U/ml), and streptomycin ([…]).
MPA derivatives preparation
To achieve the desired concentrations of the tested compounds, the substances were first dissolved in DMSO to reach a final concentration of 0.01 M. The solutions were then diluted in the appropriate additive-free medium (RPMI-1640 for T-Jurkat cells and X-VIVO20 for PBMCs) to obtain […]
Peripheral blood mononuclear cells were isolated by gradient centrifugation, as described previously. Buffy coats were diluted with phosphate-buffered saline (PBS, pH = 7.4, ThermoFisher Scientific) in a 1:1 ratio, layered at Ficoll-Paque™ PLUS (VWR International), and centrifuged at 800 × g for 20 minutes. The PBMC layer was collected and washed twice with PBS (1st wash: 600 × g for 10 minutes; 2nd wash: 600 × g for 5 minutes). Cell amount and viability were assessed using the Bio-Rad TC20™ automated cell counter combined with trypan blue staining.
XTT dye-based in vitro cytotoxicity test
The cytotoxic effects of mycophenolic acid (MPA) derivatives were assessed using an in vitro XTT-based assay (Roche). PBMCs in complete X-VIVO20 medium and T-Jurkat cells in complete RPMI-1640 medium were seeded into 96-well plates at a concentration of 5∙10^5 cells/50 µl per well. 50 µl of tested compounds were added to the experimental wells to achieve final concentrations of 50, 25, 10, 5, 1, 0.1, and 0.01 µM. The background control consisted of the medium without cells, while untreated cells served as the positive control. After incubating for 48 hours for T-Jurkat cells and 96 hours for PBMCs in a humidified atmosphere with 5% CO2 at 37°C, 50 µl of freshly prepared XTT reagent was added to all wells according to the manufacturer's instructions. The plates were then incubated for an additional 24 hours under the same conditions. The conversion of the water-soluble yellow XTT tetrazolium salt to orange formazan was quantified by measuring the optical density (OD) at 450 nm using an Agilent BioTek Epoch Microplate Spectrophotometer (Agilent Technologies), with a reference wavelength of 690 nm. The results were expressed as IC50 values for compounds that […]
inhibited cell viability by more than 50%. […]
PBMCs were suspended in a 15 mL centrifuge tube at a concentration of 10-30 × 10⁶ cells in 1 mL of PBS, then, 2 μL of 1 mM VPD 450 dye solution was added, incubated for 15 min at 37°C, washed with a 9-fold volume of warm PBS and centrifuged at 400 x g for 5 min. Then, the cells were suspended in 10 mL of X-VIVO medium with 10% FBS and centrifuged again at 400 x g for 5 min. After suspending the cells in the complete medium, the staining level was checked using flow cytometry. The cells thus obtained were stimulated with anti-CD3/anti-CD28 antibodies as described previously (see VPD450 dye-based in vitro cell proliferation test). To perform the GMP test, a proper amount of GMP was added to each well to reach its final concentration of 50 μM, and then incubated for 72 hours. Proliferative […]
A general note: Tetrazolium dyes change colour on reduction, which living cells bring about.

Regarding `COc1cc(C=O)ccc1OC(=O)CC/C(C)=C/Cc1c(O)c2c(c(C)c1OC)COC2=O` [MP4], in the assay on PBMCs [1], it took 2900 ± 5 nM to reach a half-maximal effect (EC50) and the “SI selectivity index PBMCs (IC50/EC50)” value came to 8.098. The IC50 with PBMCs [2] is 23.484 ± 0.015 µM.
The matching figures for `COc1c(C)c2c(c(O)c1C/C=C(\C)CCC(=O)Oc1ccc3c(c1)OCO3)C(=O)OC2` [P1]: 1152 ± 4 nM, 108.919 and 125.48 ± 0.025 µM.
In the case of `COc1cc(C=O)cc(OC)c1OC(=O)CC/C(C)=C/Cc1c(O)c2c(c(C)c1OC)COC2=O` [MP3], in the assay on PBMCs [1], the EC50 is 13742 ± 5 nM and the “SI selectivity index PBMCs (IC50/EC50)” value is 0.770. Besides, in the assay on PBMCs [2], the IC50 is 10.59 ± 0.04 µM.
Consider `COc1c(C)c2c(c(O)c1C/C=C(\C)CCC(=O)OCCN1CCOCC1)C(=O)OC2` [MMF, mycophenolate mofetil, reference compound], for which, in the assay on PBMCs [1], the EC50 is 1037 ± 6 nM and the “SI selectivity index PBMCs (IC50/EC50)” value came to 16.020. For the same compound, in the assay on PBMCs [2], the IC50 is 16.61 ± 0.041 µM.
On the same counts, the results for `COc1cccc(OC)c1OC(=O)CC/C(C)=C/Cc1c(O)c2c(c(C)c1OC)COC2=O` [MP2] are 5395 ± 6 nM, 4.174 and 22.52 ± 0.039 µM.
With `COC(=O)/C=C/c1ccc(OC(=O)CC/C(C)=C/Cc2c(O)c3c(c(C)c2OC)COC3=O)c(OC)c1` [MP7], in the assay with PBMCs [1], the EC50 is 7734 ± 7 nM and the “SI selectivity index PBMCs (IC50/EC50)” value stood at 3.935. Also, the IC50 with PBMCs [2] is 30.43 ± 0.044 µM.
The matching figures for `C/C=C/c1ccc(OC(=O)CC/C(C)=C/Cc2c(O)c3c(c(C)c2OC)COC3=O)c(OC)c1` [MP9]: 2356 ± 3 nM, 8.978 and 21.153 ± 0.015 µM.
The matching figures for `COC(=O)/C=C/c1ccccc1OC(=O)CC/C(C)=C/Cc1c(O)c2c(c(C)c1OC)COC2=O` [P4]: 4865 ± 4 nM, 5.321 and 25.887 ± 0.017 µM.
As for `COc1ccccc1OC(=O)CC/C(C)=C/Cc1c(O)c2c(c(C)c1OC)COC2=O` [MP1], in the assay on PBMCs [1], the response was half-maximal at 1106 ± 4 nM (EC50) and the “SI selectivity index PBMCs (IC50/EC50)” value worked out at 13.365. The IC50 in the assay on PBMCs [2] was 14.78 ± 0.016 µM.
In the case of `COc1c(C)c2c(c(O)c1C/C=C(\C)CCC(=O)Oc1ccc(C=O)cc1)C(=O)OC2` [P5], in the assay on PBMCs [1], the midpoint of the response, the EC50, lay at 1656 ± 3 nM and the “SI selectivity index PBMCs (IC50/EC50)” value stood at 6.007. For the same compound, the IC50 with PBMCs [2] was determined as 9.948 ± 0.046 µM.
On the same counts, the results for `COc1c(C)c2c(c(O)c1C/C=C(\C)CCC(=O)Oc1ccc(CCC(C)=O)cc1)C(=O)OC2` [P7] are 1047 ± 6 nM, 48.036 and 50.294 ± 0.019 µM.
On the same counts, the results for `COc1c(C)c2c(c(O)c1C/C=C(\C)CCC(=O)Oc1cc(C)ccc1C(C)C)C(=O)OC2` [P2] are 1417 ± 3 nM, 11.538 and 16.349 ± 0.01 µM.
As to `COc1c(C)c2c(c(O)c1C/C=C(\C)CCC(=O)O)C(=O)OC2` [MPA, Mycophenolic acid], in the assay on PBMCs [1], the EC50 is 1154 ± 6 nM and the “SI selectivity index PBMCs (IC50/EC50)” value amounted to 16.232. Further, the IC50 with PBMCs [2] was found to be 18.73 ± 0.03 µM.
As to `C=CCc1ccc(OC(=O)CC/C(C)=C/Cc2c(O)c3c(c(C)c2OC)COC3=O)c(OC)c1` [MP8], in the assay on PBMCs [1], a half-maximal effect (EC50) was put at 1154 ± 3 nM and the “SI selectivity index PBMCs (IC50/EC50)” value is reported as 15.409. Further, the IC50 with PBMCs [2] is 17.782 ± 0.011 µM.
